From article PMC3200564 (European journal of nuclear medicine and molecular imaging, 2011)

Columns and labels:
TEM8 (293-TEM8 cells) = TEM8 (293-TEM8 cells) (Homo sapiens, UniProt Q9H6X2); assay: biochemical; type: binding
[1] = biological target: T1, extracellular vWA domain of TEM8 (Homo sapiens, UniProt Q9H6X2); assay: biochemical; type: binding
T1 sequence (Q9H6X2 44-215 limits assumed): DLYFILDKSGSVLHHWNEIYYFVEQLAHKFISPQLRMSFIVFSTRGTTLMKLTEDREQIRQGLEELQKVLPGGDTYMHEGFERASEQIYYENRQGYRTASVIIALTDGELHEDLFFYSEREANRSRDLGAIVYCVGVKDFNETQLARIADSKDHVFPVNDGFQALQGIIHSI

Sequence of TEM8 (293-TEM8 cells) (Q9H6X2 33-564): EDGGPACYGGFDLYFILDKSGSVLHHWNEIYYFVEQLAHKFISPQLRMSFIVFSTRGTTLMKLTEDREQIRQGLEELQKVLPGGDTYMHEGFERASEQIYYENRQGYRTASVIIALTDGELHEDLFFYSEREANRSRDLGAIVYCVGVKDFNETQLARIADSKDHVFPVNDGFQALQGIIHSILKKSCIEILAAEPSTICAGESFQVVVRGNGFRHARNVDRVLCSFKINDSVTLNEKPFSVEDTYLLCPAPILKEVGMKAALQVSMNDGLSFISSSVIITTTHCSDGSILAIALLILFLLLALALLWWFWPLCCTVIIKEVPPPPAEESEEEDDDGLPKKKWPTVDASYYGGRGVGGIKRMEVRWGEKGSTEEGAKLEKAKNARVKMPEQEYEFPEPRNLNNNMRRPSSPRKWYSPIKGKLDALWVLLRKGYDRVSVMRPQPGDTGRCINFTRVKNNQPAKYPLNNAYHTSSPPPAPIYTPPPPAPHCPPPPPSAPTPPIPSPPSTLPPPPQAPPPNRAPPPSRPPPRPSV

Compound: CC[C@H](C)[C@H](NC(=O)[C@H](Cc1ccc(O)cc1)NC(=O)[C@H](CC(C)C)NC(=O)[C@@H]1CCCN1C(=O)[C@H](CC(C)C)NC(=O)[C@H](CCCNC(=N)N)NC(=O)[C@H](CC(=O)O)NC(=O)[C@H](CC(N)=O)NC(=O)[C@H](Cc1ccc(O)cc1)NC(=O)[C@@H](N)CCCCN)C(=O)N[C@@H](CO)C(=O)N[C@@H](CC(N)=O)C(=O)N1CCC[C@H]1C(=O)O [QQM, KYNDRLPLYISNP]
- IC50 (TEM8 (293-TEM8 cells)): 33 nM
- IC50 [1]: 304 nM
